How the values were obtained:
[1] = target: Ba/F3 EGFR L858R/T790M/C797S (LTC) (Homo sapiens, UniProt P00533, T790M/C797S/L858R, cells depend on it); test: Cell growth inhibitory ability in Ba/F3 cells overexpressing EGFR L858R/T790M/C797S (MTS, CellTiter 96 AQueous); assay type: cell-based; conditions: 72 hours, MTS absorbance at 490 nm, read-out: Ba/F3 EGFR triple mutant L858R/T790M/C797S, IC50
Experimental: (§1) In order to confirm that the compound represented by formula 1 provided in one aspect of the present invention acts as an allosteric inhibitor against WT and mutant of EGFR, the cell growth inhibitory effect was evaluated in BaF3 cells overexpressing WT and mutant of EGFR.
(§2) More specifically, the cell growth inhibitory ability of the compound of the present invention to the Ba/F3 cell line overexpressing WT and mutant of EGFR was evaluated using CellTiter 96 AQueous Non-Radioactive Cell Proliferation Assay system of Promega, as follows. AQueous Non-Radioactive Cell Proliferation Assay is a method of confirming cell growth inhibitory ability by measuring the degree of color development by reducing MTS (3-(4,5-Dimethylthiazol-2-yl)-5-(3-carboxymethoxyphenyl)-2-(4-sulfophenyl)-2H-tetrazolium) to Formazan by a reductase secreted by mitochondria present in living cells in a cell culture state. The Ba/F3 EGFR WT and Ba/F3 EGFR del19/T790M/C797S (DTC), Ba/F3 EGFR L858R (L), Ba/F3 EGFR L858R/T790M (LT), and Ba/F3 EGFR L858R/T790M/C797S (LTC) mutation cell lines used in the present invention were purchased from the laboratory of Professor Byung-cheol Cho, Yonsei University. All cell lines were cultured in RPMI supplemented with 10% FBS, 1% penicillin-streptomycin and 1 μg/ml of puromycine in a 5% CO2 incubator at 37° C.
(§3) The cell survival inhibitory effect of the compound according to each EGFR mutation was analyzed by the following analysis method.
(§4) BaF3 cells were distributed in a 96-well cell culture plate at the density of 2000˜10000 cells/100 μL/well, and cultured for 24 hours. Thereafter, the concentration of the compound represented by formula 1 provided in one aspect of the present invention was prepared to double the final concentrations of 0.1 nM, 1 nM, 10 nM, 100 nM, 1000 nM and 10000 nM, and the compound was treated to the plate (100 μL/well). The plate was reacted in an incubator at 37° C. for 72 hours. Then, MTS was treated to the plate (20 μL/well) and the plate was incubated at 37° C. for 2 to 4 hours. Finally, after measuring the absorbance at 490 nm using a microplate reader, the relative value compared to 0 nM (% Control) was obtained to confirm the cell growth inhibitory ability of the compound. The measured values were analyzed using Prism program (version 8.0, Graphpad Software, Inc.), and the IC50 value (Inhibition concentration 50), an indicator of the cell growth inhibitory ability of the compound, was calculated.

[2] = target: Ba/F3 EGFR L858R/T790M (LT) (Homo sapiens, UniProt P00533, T790M/L858R, cells depend on it); test: Cell growth inhibitory ability in Ba/F3 cells overexpressing EGFR L858R/T790M (MTS, CellTiter 96 AQueous); assay type: cell-based; conditions: 72 hours, MTS absorbance at 490 nm, read-out: Ba/F3 EGFR double mutant L858R/T790M, IC50
Experimental: as §1, §2, §3, §4

Ba/F3 EGFR L858R/T790M (LT), sequence (P00533 whole entry T790M/L858R): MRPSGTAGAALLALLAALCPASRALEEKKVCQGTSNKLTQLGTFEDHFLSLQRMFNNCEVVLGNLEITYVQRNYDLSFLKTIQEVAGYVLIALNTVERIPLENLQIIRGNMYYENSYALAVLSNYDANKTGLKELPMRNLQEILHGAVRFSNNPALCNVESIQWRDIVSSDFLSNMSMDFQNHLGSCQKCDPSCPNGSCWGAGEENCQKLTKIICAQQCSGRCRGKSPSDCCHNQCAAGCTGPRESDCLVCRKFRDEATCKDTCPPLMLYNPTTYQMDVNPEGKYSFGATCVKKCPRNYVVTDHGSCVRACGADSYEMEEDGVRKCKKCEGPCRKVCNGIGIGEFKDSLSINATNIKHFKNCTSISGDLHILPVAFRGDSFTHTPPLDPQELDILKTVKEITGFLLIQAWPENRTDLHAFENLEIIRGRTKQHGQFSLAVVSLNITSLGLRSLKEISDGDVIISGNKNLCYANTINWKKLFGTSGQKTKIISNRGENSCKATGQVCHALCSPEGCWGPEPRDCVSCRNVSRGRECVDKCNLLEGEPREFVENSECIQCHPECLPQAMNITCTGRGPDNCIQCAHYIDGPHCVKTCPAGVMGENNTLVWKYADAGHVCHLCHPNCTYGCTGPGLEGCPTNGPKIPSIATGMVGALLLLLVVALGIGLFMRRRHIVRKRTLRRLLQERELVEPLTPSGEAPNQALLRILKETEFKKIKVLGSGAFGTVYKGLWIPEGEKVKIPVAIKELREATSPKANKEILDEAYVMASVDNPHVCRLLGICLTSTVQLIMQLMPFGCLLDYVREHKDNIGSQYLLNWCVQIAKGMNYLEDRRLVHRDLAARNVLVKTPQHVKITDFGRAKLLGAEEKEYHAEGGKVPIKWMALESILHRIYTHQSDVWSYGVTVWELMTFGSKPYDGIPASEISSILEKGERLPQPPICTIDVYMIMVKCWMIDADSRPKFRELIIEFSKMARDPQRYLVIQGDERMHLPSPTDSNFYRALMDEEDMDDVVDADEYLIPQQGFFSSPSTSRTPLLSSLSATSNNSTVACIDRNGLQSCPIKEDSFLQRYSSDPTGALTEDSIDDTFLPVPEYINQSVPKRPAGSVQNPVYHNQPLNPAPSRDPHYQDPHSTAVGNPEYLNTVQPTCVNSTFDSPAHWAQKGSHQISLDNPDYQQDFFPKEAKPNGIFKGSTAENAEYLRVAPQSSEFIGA
Ba/F3 EGFR L858R/T790M/C797S (LTC), sequence (P00533 whole entry T790M/C797S/L858R): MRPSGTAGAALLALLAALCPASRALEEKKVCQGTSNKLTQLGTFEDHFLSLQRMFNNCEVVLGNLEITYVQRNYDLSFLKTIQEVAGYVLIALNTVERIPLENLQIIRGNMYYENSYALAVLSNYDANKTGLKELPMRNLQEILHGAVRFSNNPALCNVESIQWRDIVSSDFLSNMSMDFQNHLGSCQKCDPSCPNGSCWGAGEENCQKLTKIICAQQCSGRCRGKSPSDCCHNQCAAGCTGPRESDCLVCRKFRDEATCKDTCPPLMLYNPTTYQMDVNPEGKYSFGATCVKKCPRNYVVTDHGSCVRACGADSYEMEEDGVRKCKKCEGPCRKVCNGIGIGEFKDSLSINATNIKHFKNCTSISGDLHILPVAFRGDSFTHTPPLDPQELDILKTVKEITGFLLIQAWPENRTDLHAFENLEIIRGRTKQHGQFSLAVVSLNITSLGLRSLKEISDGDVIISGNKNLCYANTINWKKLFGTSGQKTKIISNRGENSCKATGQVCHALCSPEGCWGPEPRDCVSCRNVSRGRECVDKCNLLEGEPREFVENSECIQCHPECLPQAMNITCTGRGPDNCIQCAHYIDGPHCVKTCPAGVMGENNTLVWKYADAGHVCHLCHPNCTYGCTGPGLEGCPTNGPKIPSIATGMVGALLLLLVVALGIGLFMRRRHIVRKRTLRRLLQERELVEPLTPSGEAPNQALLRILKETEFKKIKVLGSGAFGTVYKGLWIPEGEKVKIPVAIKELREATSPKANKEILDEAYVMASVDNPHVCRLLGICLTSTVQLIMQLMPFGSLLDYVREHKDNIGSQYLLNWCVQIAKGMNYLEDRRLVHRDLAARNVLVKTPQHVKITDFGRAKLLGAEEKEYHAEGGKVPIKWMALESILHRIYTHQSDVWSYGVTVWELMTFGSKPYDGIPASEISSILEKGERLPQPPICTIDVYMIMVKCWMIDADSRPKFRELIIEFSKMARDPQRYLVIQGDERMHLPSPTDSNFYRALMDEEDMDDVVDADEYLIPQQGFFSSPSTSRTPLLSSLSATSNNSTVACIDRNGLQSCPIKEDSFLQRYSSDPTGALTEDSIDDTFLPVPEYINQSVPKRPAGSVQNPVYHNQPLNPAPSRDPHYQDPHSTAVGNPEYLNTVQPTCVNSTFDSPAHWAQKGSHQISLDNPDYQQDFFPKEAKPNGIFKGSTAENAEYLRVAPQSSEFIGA

Row | GI50 [1] | GI50 [2] | Compound
1 | > 200 nM | 30 to 200 nM | COc1ccc(F)cc1[C@@H](NC(=O)c1cc(OC(F)(F)F)cc(-c2ccc(N3CCC(N)CC3)cc2)c1)c1cc2ccccc2[nH]1 [Example 12, (R)-4′-(4-aminopiperidine-1-yl)-N-((5-fluoro-2-methoxyphenyl)(1H-indole-2-yl)methyl)-5-(trifluoromethoxy)-[1,1′-biphenyl]-3-carboxamide]
2 | < 30 nM | < 30 nM | Cc1cc(C(=O)N[C@@H](c2cc3ccccc3[nH]2)c2cc(F)ccc2O)cc(-c2ncc(N3CCNCC3)cn2)c1 [Example 36, (R)—N-((5-fluoro-2-hydroxyphenyl)(1H-indole-2-yl)methyl)-3-methyl-5-(5-(piperazine-1-yl)pyrimidine-2-yl)benzamide]
3 | < 30 nM | < 30 nM | Cc1cc(C(=O)N[C@@H](c2cc3ccccc3[nH]2)c2cc(F)ccc2O)cc(-c2ncc(N3CC[C@@H](N)C3)cn2)c1 [Example 44, 3-[5-[(3R)-3-aminopyrrolidine-1-yl]pyrimidine-2-yl]-N—[(R)-(5-fluoro-2-hydroxy-phenyl)-(1H-indole-2-yl)methyl]-5-methyl-benzamide]
4 | > 200 nM | > 200 nM | CSc1cc(C(=O)N[C@@H](c2cc3ccccc3[nH]2)c2cc(F)ccc2O)cc(-c2ccc(N3CCC(N)CC3)cc2)c1 [Example 8, 4′-(4-aminopiperidine-1-yl)-N-((5-fluoro-2-hydroxyphenyl)(1H-indole-2-yl)methyl)-5-(methylthio)-[1,1′-biphenyl]-3-carboxamide]
5 | < 30 nM | < 30 nM | CCN(CC)C1CCN(c2cnc(-c3cc(C)cc(C(=O)N[C@@H](c4cc5ccccc5[nH]4)c4cc(F)ccc4O)c3)nc2)CC1 [Example 45, (R)-3-(5-(4-(diethylamino)piperidine-1-yl)pyrimidine-2-yl)-N-((5-fluoro-2-hydroxyphenyl)(1H-indole-2-yl)methyl)-5-methylbenzamide]
6 | > 200 nM | > 200 nM | CCCC1CCN(c2cnc(-c3cc(C)cc(C(=O)N[C@@H](c4cc5ccccc5[nH]4)c4cc(F)ccc4O)c3)nc2)CC1 [Example 38, N—[(R)-(5-fluoro-2-hydroxy-phenyl)-(1H-indole-2-yl)methyl]-3-methyl-5-[5-(4-propyl-1-piperidyl)pyrimidine-2-yl]benzamide]
7 | < 30 nM | < 30 nM | Cc1cc(C(=O)N[C@@H](c2cc3ccccc3[nH]2)c2cc(F)ccc2O)cc(-c2ccc(N3CCC(N)CC3)c(C)c2)c1 [Example 25, (R)-4′-(4-aminopiperidine-1-yl)-N-((5-fluoro-2-hydroxyphenyl)(1H-indole-2-yl)methyl)-3′,5-dimethyl-[1,1′-biphenyl]-3-carboxamide]
8 | < 30 nM | < 30 nM | Cc1cc(C(=O)N[C@@H](c2cc3ccccc3[nH]2)c2cc(F)ccc2O)cc(-c2ccc(N3CCC(N)CC3)c(F)c2)c1 [Example 22, (R)-4′-(4-aminopiperidine-1-yl)-3′-fluoro-N-((5-fluoro-2-hydroxyphenyl)(1H-indole-2-yl)methyl)-5-methyl-[1,1′-biphenyl]-3-carboxamide]
9 | < 30 nM | < 30 nM | Cc1cc(C(=O)N[C@@H](c2cc3ccccc3[nH]2)c2cc(F)ccc2O)cc(-c2ccc(N3CCC(N)CC3)nc2)c1 [Example 19, (R)-3-(6-(4-aminopiperidine-1-yl)pyridine-3-yl)-N-((5-fluoro-2-hydroxyphenyl)(1H-indole-2-yl)methyl)-5-methylbenzamide]
10 | > 200 nM | > 200 nM | COc1cc(C(=O)N[C@@H](c2cc3ccccc3[nH]2)c2cc(F)ccc2O)cc(-c2ccc(N3CCC(N)CC3)cc2)c1 [Example 3, (R)-4′-(4-aminopiperidine-1-yl)-N-((5-fluoro-2-hydroxyphenyl)(1H-indole-2-yl)methyl)-5-methoxy-[1,1′-biphenyl]-3-carboxamide]
11 | < 30 nM | > 200 nM | Cc1cc(C(=O)N[C@@H](c2cc3ccccc3[nH]2)c2cc(F)ccc2O)cc(-c2ncc(N3CCN(C(=O)OC(C)(C)C)CC3)cn2)c1 [Example 35, tert-butyl (R)-4-(2-(3-(((5-fluoro-2-hydroxyphenyl)(1H-indole-2-yl)methyl)carbamoyl)-5-methylphenyl)pyrimidine-5-yl)piperazine-1-carboxylate]
12 | > 200 nM | > 200 nM | Cc1cc(C(=O)N[C@H](c2cc3ccccc3[nH]2)c2cc(F)ccc2O)cc(-c2ccc(N3CCC(N)CC3)cc2)c1 [Example 31, (S)-4′-(4-aminopiperidine-1-yl)-N-((5-fluoro-2-hydroxyphenyl)(1H-indole-2-yl)methyl)-5-methyl-[1, l′-biphenyl]-3-carboxamide]

Further lines, the compound ahead of its results:

Row | Compound | GI50 [1] | GI50 [2]
13 | Cc1cc(C(=O)N[C@@H](c2cc3ccc(Cl)cc3[nH]2)c2cc(F)ccc2O)cc(-c2ccc(N3CCC(N)CC3)cc2)c1 [Example 27, (R)-4′-(4-aminopiperidine-1-yl)-N-((6-chloro-1H-indole-2-yl)(5-fluoro-2-hydroxyphenyl)methyl)-5-methyl-[1,1′-biphenyl]-3-carboxamide] | > 200 nM | 30 to 200 nM
14 | NC1CCN(c2ccc(-c3cc(C(=O)N[C@@H](c4cc5ccccc5[nH]4)c4cc(F)ccc4O)cc([N+](=O)[O-])c3)cc2)CC1 [Example 7, 4′-(4-aminopiperidine-1-yl)-N-((5-fluoro-2-hydroxyphenyl)(1H-indole-2-yl)methyl)-5-nitro-[1,1′-biphenyl]-3-carboxamide] | > 200 nM | > 200 nM
15 | Cc1cc(C(=O)N[C@@H](c2cc3ccccc3[nH]2)c2cc(F)ccc2O)cc(-c2ncc(N3CCC(N)CC3)cn2)c1 [Example 21, (R)-3-(5-(4-aminopiperidine-1-yl)pyrimidine-2-yl)-N-((5-fluoro-2-hydroxyphenyl)(1H-indole-2-yl)methyl)-5-methylbenzamide] | < 30 nM | < 30 nM
16 | NC1CCN(c2ccc(-c3cc(F)cc(C(=O)N[C@@H](c4cc5ccccc5[nH]4)c4cc(F)ccc4O)c3)cc2)CC1 [Example 5, (R)-4′-(4-aminopiperidine-1-yl)-5-fluoro-N-((5-fluoro-2-hydroxyphenyl)(1H-indole-2-yl)methyl)-[1,1′-biphenyl]-3-carboxamide] | > 200 nM | < 30 nM
17 | Cc1c(C(=O)N[C@@H](c2cc3ccccc3[nH]2)c2cc(F)ccc2O)cccc1-c1ccc(N2CCC(N)CC2)cc1 [Example 30, (R)-4′-(4-aminopiperidine-1-yl)-N-((5-fluoro-2-hydroxyphenyl) (1H-indole-2-yl)methyl)-2-methyl-[1,1′-biphenyl]-3-carboxamide] | > 200 nM | > 200 nM
18 | NC1CCN(c2ccc(-c3cc(C(=O)N[C@@H](c4cc5ccccc5[nH]4)c4cc(F)ccc4O)cc(C(F)(F)F)c3)cc2)CC1 [Example 6, 4′-(4-aminopiperidine-1-yl)-N-((5-fluoro-2-hydroxyphenyl)(1H-indole-2-yl)methyl)-5-(trifluoromethyl)-[1,1′-biphenyl]-3-carboxamide] | > 200 nM | > 200 nM
19 | Cc1cc(C(=O)N[C@@H](c2cc3ccccc3[nH]2)c2cc(F)ccc2O)cc(-c2ccc(N3CCC(N)CC3)nn2)c1 [Example 20, (R)-3-(6-(4-aminopiperidine-1-yl)pyridazine-3-yl)-N-((5-fluoro-2-hydroxyphenyl)(1H-indole-2-yl)methyl)-5-methylbenzamide] | > 200 nM | 30 to 200 nM
20 | Cc1cc(C(=O)N[C@@H](c2cc3ccccc3[nH]2)c2cc(F)ccc2O)cc(-c2ccc(N3CCC(N)CC3)cc2)c1 [Example 1, (R)-4′-(4-aminopiperidine-1-yl)-N-((5-fluoro-2-hydroxyphenyl)(1H-indole-2-yl)methyl)-5-methyl-[1,1′-biphenyl]-3-carboxamide] | < 30 nM | < 30 nM
21 | NC1CCN(c2ccc(-c3cc(Cl)cc(C(=O)N[C@@H](c4cc5ccccc5[nH]4)c4cc(F)ccc4O)c3)cc2)CC1 [Example 10, (R)-4′-(4-aminopiperidine-1-yl)-5-chloro-N-((5-fluoro-2-hydroxyphenyl)(1H-indole-2-yl)methyl)-[1,1′-biphenyl]-3-carboxamide] | 30 to 200 nM | < 30 nM

From patent US20240246948A1, “BENZAMIDE DERIVATIVE, METHOD FOR PREPARING SAME, AND PHARMACEUTICAL COMPOSITION FOR PREVENTION OR TREATMENT OF CANCER CONTAINING SAME AS ACTIVE INGREDIENT” (HK INNO.N CORPORATION, priority 2021, published 2024)
